Data as given in patent US12599611B2, “Methods and compositions for treating seizure disorders in pediatric patients” (Neurelis, Inc., priority 2021, dated 2026).

Tested on: beta frequency by EEG
Test: EEG monitoring of beta rhythm / beta frequency after diazepam administration
Settings: after intranasal administration of 20 mg of diazepam via an intranasal composition

CN1C(=O)CN=C(c2ccccc2)c2cc(Cl)ccc21 [diazepam, 7-chloro-1,3-dihydro-1-methyl-5-phenyl-1,4-benzodiazepin-2-one]
time to changes in beta frequency (EEG): ≤ 10 min
